Like-named read-outs stand apart in the source and are kept apart here.
Assays:
[1] = tested on: HCT 116 (Colorectal Cancer); experiment: Monolayer assay (CCK-8 cytotoxicity); type: cell-based, human; settings: HCT116, Table 6, read-out: IC50 (μM) in different cancer cell lines: HCT116
Method: (§1) The assays were designed as in the reference, BMC Cancer, 2010, 10, 610, 1-11; the disclosure of which is incorporated by reference for the teaching of the assay.
(§2) Human tumour cell lines: Panc-1 (Pancreatic Cancer), HCT 116 (Colorectal Cancer), ACHN (Renal Cell Carcinoma), Calu-1 (Lung Carcinoma), MiaPaca2 (Pancreatic Cancer), FADU (Head and Neck Cancer), PC3 (prostate Cancer), G361 (Melanoma), MDA-MB435S (Melanoma), HeLa (Cervical Cancer) were grown in Minimal Essential Media with Eagle's Basal Salts (MEM-EBS) obtained from AMIMED (BioConcept-Switzerland). Tumour cell lines: MDA-MB231 (Breast Cancer), JURKAT (T cell leukaemia), H460 (Small Cell Lung Cancer) were cultured in RPMI 1640 (AMIMED, BioConcept, Switzerland) medium. All tumour cell lines were supplemented with 10% Foetal Bovine Serum (FBS) (GIBCO), 1% Penicillin/Streptomycin (Sigma) and 1% Anti-Anti (GIBCO) and grown in T-175 tissue culture flasks (Nunc). MCF-10A, a non-tumourigenic cell line, was cultured in Mammary Epithelial Basal Medium (MEBM) with all standard additions (Lonza, Catalog. No. CC-3150). All cells were grown in 5% CO2 incubator at 37° C. Cells were passaged at 80-90% confluence. Adherent cells were trypsinised using Trypsin-EDTA (Sigma) and maintained. All cell lines were purchased from ATCC (Rockville, Md., USA).
(§3) Compound of Formula (1a) [described in example 7] was dissolved in DMSO to give a required stock solution of 20 mM. Eight different concentrations of the compound of Formula (1a) were prepared by serial dilution of stock solution finally resulting in a (compared to the test concentration) 200-fold higher concentration. Compound of Formula (1a) was tested at the concentration of 0.0001 μM, 0.001 μM, 0.01 μM, 0.03 μM, 0.1 μM, 0.3 μM, 1 μM and 3 μM respectively. Each concentration was evaluated in triplicate.
(§4) Method for determination of IC50 of the compound of Formula (1a): • a) Different cancer/normal cells were seeded at a density of 3000 cells/200 μL well, in a tissue culture grade 96 well plate and allowed them to recover for 24 hrs in a humidified 5±0.2% CO2 incubator at 37±0.5° C. • b) After 24 hrs, 1 μL of 200× (200 times higher than required concentration is denoted as 200×) compound of Formula (1a), dissolved in DMSO, was added to the above tissue culture plate seeded with cancer/normal cells. The final concentration of DMSO was 0.5% in wells. DMSO was used as a vehicle control. • c) After 24 hrs the plate was removed from CO2 incubator and 5 μL of CCK-8 (Dojindo Molecular Technologies, Inc. USA, catalog, no. CK04-20) per well was added. • d) The plate was then placed at 37° C. for 2 hrs. • e) The absorbance was recorded at 450 nm. • f) The percent cytotoxicity was calculated using the following formula
(§5) The IC50 value was estimated by visual inspection of the concentration-effect curve. For calculation of mean IC50 values over the fourteen cell lines as tested, the geometric mean was selected.
(§6) The assays were designed as described above in example 16.
(§7) The IC50 value was estimated by visual inspection of the concentration-effect curve. For calculation of mean IC50 values over the six cell lines (PC3, MDA MB, HCT116, MCF7, MIAPaCa2, MCF10A) as tested, the geometric mean was selected.

[2] = tested on: MDA-MB231 (Breast Cancer); experiment: Monolayer assay (CCK-8 cytotoxicity); type: cell-based, human; settings: MDA MB-231, Table 6, read-out: IC50 (μM) in different cancer cell lines: MDA MB-231
Method: as §1, §2, §3, §4, §5, §6, §7

[3] = tested on: PC3 (prostate Cancer); experiment: Monolayer assay (CCK-8 cytotoxicity); type: cell-based, human; settings: PC3, Table 6, read-out: IC50 (μM) in different cancer cell lines: PC3
Method: as §1, §2, §3, §4, §5, §6, §7

[4] = tested on: MCF-10A, a non-tumourigenic cell line; experiment: Monolayer assay (CCK-8 cytotoxicity), normal cells; type: cell-based; settings: Table 6
Method: as §1, §2, §3, §4, §5, §6, §7

[5] = tested on: MCF7; experiment: Monolayer assay (CCK-8 cytotoxicity); type: cell-based; settings: Table 6, read-out: IC50 (μM) in different cancer cell lines: MCF7
Method: as §1, §4, §6, §7

[6] = tested on: different cancer cells; experiment: Monolayer assay, range over the cancer cell lines tested; type: cell-based; settings: Homo sapiens; range over the cancer cell lines of Table 6
Method: as §1, §2, §3, §4, §5, §6, §7

[7] = Solubility (physical properties); type: physicochemical
[8] = MCF10A normal cells, read-out: IC50 (μM) in different cancer cell lines: MCF10A
[9] = read-out: IC50 (μM) in different cancer cell lines: MCF10A, MCF10A normal cells
[10] = Homo sapiens, MCF-10A, read-out: IC50 (μM) in different cancer cell lines: MCF10A, MCF10A normal cells

CON1C(=O)C2CCCNN2C(=O)C(NC(=O)C(C)(O)C2(O)CCC(CC(C)C)C(C)O2)C(C(C)C)OC(=O)C(C)N(O)C(=O)C2CCCNN2C(=O)CNC(=O)C1C (stereo not shown) [Compound 1, 2-hydroxy-N-(18-hydroxy-22-isopropyl-6-methoxy-7,19-dimethyl-5,8,11,17,20,24-hexaoxotetracosahydrodipyridazino[6,1-f:6′,1′-o][1,4,7,10,13,16]oxapentaazacyclononadecin-23-yl)-2-(2-hydroxy-5-isobutyl-6-methyltetrahydro-2H-pyran-2-yl) propanamide]
IC50 [1]: 0.287 µM
IC50 [2]: 0.293 µM
IC50 [3]: 0.502 µM
IC50 [4, 8]: 0.247 µM
IC50 [5]: 0.355 µM

CON1C(=O)C2CCCNN2C(=O)C(NC(=O)C(C)(O)C2(O)CCC(CC(C)C)C(C)O2)C(C(C)C)OC(=O)C(C)N(OC)C(=O)C2CCCNN2C(=O)CNC(=O)C1C (stereo not shown) [Compound 2, 2-hydroxy-2-(2-hydroxy-5-isobutyl-6-methyltetrahydro-2H-pyran-2-yl)-N-(22-isopropyl-6,18-dimethoxy-7,19-dimethyl-5,8,11,17,20,24-hexaoxotetracosahydrodipyridazino[6,1-f:6′,1′-o][1,4,7,10,13,16]oxapentaazacyclononadecin-23-yl)propanamide]
IC50 ([1]; Homo sapiens, HCT-116): 0.635 µM
IC50 ([2]; Homo sapiens): 0.8 µM
IC50 ([3]; Homo sapiens): 1.04 µM
IC50 [6]: 9 to 1040 nM
IC50 [4, 9]: 0.691 µM
IC50 ([5]; Homo sapiens): 0.826 µM

CC(C)CC1CCC(O)(C(C)(O)C(=O)NC2C(=O)N3NCCCC3C(=O)N(OC(=O)CCNC(=O)OCc3ccccc3)C(C)C(=O)NCC(=O)N3NCCCC3C(=O)N(O)C(C)C(=O)OC2C(C)C)OC1C (stereo not shown) [Compound 3, 18-hydroxy-23-(2-hydroxy-2-(2-hydroxy-5-isobutyl-6-methyltetrahydro-2H-pyran-2-yl)propanamido)-22-isopropyl-7,19-dimethyl-5,8,11,17,20,24-hexa oxoicosahydrodipyridazino[6,1-f:6′,1′-o][1,4,7,10,13,16]oxapentaazacyclononadecin-6(7H,13H,22H)-yl 3-(((benzyloxy)carbonyl)amino)propanoate]
IC50 ([1]; Homo sapiens, HCT-116): 0.009 µM
IC50 ([2]; Homo sapiens): 0.03 µM
IC50 ([3]; Homo sapiens): 0.044 µM
IC50 [6]: 9 to 1040 nM
IC50 [4, 9]: 0.031 µM
IC50 ([5]; Homo sapiens): 0.025 µM

CC(C)CC1CCC(O)(C(C)(O)C(=O)NC2C(=O)N3NCCCC3C(=O)N(OC(=O)CCN)C(C)C(=O)NCC(=O)N3NCCCC3C(=O)N(O)C(C)C(=O)OC2C(C)C)OC1C (stereo not shown) [Compound 4, 18-hydroxy-23-(2-hydroxy-2-(2-hydroxy-5-isobutyl-6-methyltetra hydro-2H-pyran-2-yl)propanamido)-22-isopropyl-7,19-dimethyl-5,8,11,17,20,24-hexaoxo icosahydrodipyridazino[6,1-f:6′,1′-o][1,4,7,10,13,16]oxapentaazacyclononadecin-6(7H,13H,22H)-yl 3-aminopropanoate]
IC50 [1]: 0.17 µM
IC50 [2]: 0.2 µM
IC50 [4, 8]: < 0.3 µM
IC50 [5]: 0.03 µM

CC(C)CC1CCC(O)(C(C)(O)C(=O)NC2C(=O)N3N=CCCC3C(=O)N(O)C(C)C(=O)NCC(=O)N3N=CCCC3C(=O)N(O)C(C)C(=O)OC2C(C)C)OC1C (stereo not shown) [Compound 5, N-(6,18-dihydroxy-22-isopropyl-7,19-dimethyl-5,8,11,17,20,24-hexaoxo-3,4,4a,5,6,7,8,9,10,11,15,16,16a,17,18,19,20,22,23,24-icosahydrodipyridazino[6,1-f:6′,1′-o][1,4,7,10,13,16]oxapentaazacyclononadecin-23-yl)-2-hydroxy-2-(2-hydroxy-5-isobutyl-6-methyltetrahydro-2H-pyran-2-yl)propanamide]
IC50 ([1]; Homo sapiens, HCT-116): < 0.01 µM
IC50 ([2]; Homo sapiens): 0.012 µM
IC50 [6]: 9 to 1040 nM
IC50 [4, 10]: 0.01 to 0.83 µM
IC50 [4, 9]: < 0.01 µM
IC50 ([5]; Homo sapiens): 0.018 µM

CC(C)CC1CCC(O)(C(C)(O)C(=O)NC2C(=O)N3NCCCC3C(=O)NC(C)C(=O)NCC(=O)N3NCCCC3C(=O)NC(C)C(=O)OC2C(C)C)OC1C (stereo not shown) [Compound 6, 2-hydroxy-2-(2-hydroxy-5-isobutyl-6-methyltetrahydro-2H-pyran-2-yl)-N-(22-isopropyl-7,19-dimethyl-5,8,11,17,20,24-hexaoxotetracosahydrodipyridazino[6,1-f:6′,1′-o][1,4,7,10,13,16]oxapentaazacyclononadecin-23-yl)propanamide]
IC50 ([1]; Homo sapiens, HCT-116): 0.284 µM
IC50 ([2]; Homo sapiens): 0.343 µM
IC50 ([3]; Homo sapiens): 0.998 µM
IC50 [6]: 9 to 1040 nM
IC50 [4, 9]: 0.819 µM
IC50 ([5]; Homo sapiens): 0.977 µM

CC(=O)ON1C(=O)C2CCCNN2C(=O)C(NC(=O)C(C)(O)C2(O)CCC(CC(C)C)C(C)O2)C(C(C)C)OC(=O)C(C)N(O)C(=O)C2CCCNN2C(=O)CNC(=O)C1C (stereo not shown) [Compound 7, 18-hydroxy-23-(2-hydroxy-2-(2-hydroxy-5-isobutyl-6-methyltetra hydro-2H-pyran-2-yl)propanamido)-22-isopropyl-7,19-dimethyl-5,8,11,17,20,24-hexaoxo icosahydrodipyridazino[6,1-f:6′,1′-o[]1,4,7,10,13,16]oxapentaazacyclononadecin-6(7H,13H,22H)-yl acetate]
IC50 [1]: 0.257 µM
IC50 [2]: 0.32 µM
IC50 [3]: 0.36 µM
IC50 [4, 8]: 0.83 µM
IC50 [5]: 0.843 µM

CC(C)CC1CCC(O)(C(C)(O)C(=O)NC2C(=O)N3N=CCCC3C(=O)N(O)C(C)C(=O)NCC(=O)N3NCCCC3C(=O)N(O)C(C)C(=O)OC2C(C)C)OC1C (stereo not shown) [Formula (1b), N-(6,18-dihydroxy-22-isopropyl-7,19-dimethyl-5,8,11,17,20,24-hexaoxo-3,4,4a,5,6,7,8,9, 10,11,13,14,15, 16,16a, 17,18,19,20,22,23,24-docosahydrodipyridazino[6,1-f:6′,1′-o][1,4,7,10, 13,16]oxapentaazacyclononadecin-23-yl)-2-hydroxy-2-(2-hydroxy-5-isobutyl-6-methyltetra hydro-2H-pyran-2-yl)propanamide]
Solubility in organic solvents ([7]; chloroform, ethyl acetate and methanol): Soluble in chloroform, ethyl acetate and methanol and
Solubility in water ([7]; water): insoluble in water
IC50 ([1]; Homo sapiens, HCT-116): 0.032 µM
IC50 ([2]; Homo sapiens): 0.018 µM
IC50 ([3]; Homo sapiens): 0.035 µM
IC50 [6]: 18 to 71 nM
IC50 [4, 10]: 0.03 µM
IC50 ([5]; Homo sapiens): 0.071 µM
